Assay results: ChEMBL document CHEMBL1144007, “Activity of Mannich bases of 7-hydroxycoumarin against Flaviviridae” (Bioorg Med Chem, 2008)
Active and inactive are the calls of the source. No rule for the calls is given here.

Key:
[1] = Cytotoxicity against human MT4 cells after 96 hrs by MTT method; assay type: cell-based
[2] = tested on: Bovine viral diarrhea virus 1; assay: Antiviral activity against BVDV NADL in MDBK cells assessed as protection from virus-induced cytopathogenicity by MTT method; assay type: functional, organism-based; details: Bovine viral diarrhea virus isolates and strains
Poliovirus 1 = assay: Antiviral activity against Human poliovirus 1 Sabin; assay type: functional
Reovirus sp. = assay: Antiviral activity against Reovirus; assay type: functional, organism-based
[3] = tested on: Vesicular stomatitis virus; assay: Antiviral activity against vesicular stomatitis virus; assay type: functional, organism-based
Yellow fever virus = assay: Antiviral activity against YFV in BHK cells assessed as protection from virus-induced cytopathogenicity by MTT method; assay type: functional, organism-based
[4] = tested on: Human immunodeficiency virus 1; assay: Antiviral activity against HIV1; assay type: functional, organism-based
[5] = tested on: Respiratory syncytial virus; assay: Antiviral activity against RSV A2 in VERO76 cells assessed as reduction of plaque number by MTT method; assay type: functional, organism-based; details: human respiratory syncytial virus, A2, Vero 76
Vaccinia virus = assay: Antiviral activity against vaccinia virus; assay type: functional, organism-based; details: Orthopoxvirus vaccinia

Row | Structure (SMILES) | CC50 at 96 h [1] | EC50 [2] | Activity (Poliovirus 1) | Activity (Reovirus sp.) | Activity [3] | EC50 (Yellow fever virus) | Activity [4] | EC50 [5] | Activity (Vaccinia virus)
1 | CCCCCCCCOc1ccc2c(=O)c(Cc3c(OC(C)=O)ccc4c(C)cc(=O)oc34)c(N(CC)CC)oc2c1 | > 100 µM | > 100 µM | inactive | inactive | inactive | > 100 µM | inactive | > 100 µM | inactive
2 | CCC(=O)Oc1ccc2ccc(=O)oc2c1Cc1c[nH]c2ccccc12 | 65 µM | ≥ 55 µM | inactive | inactive | inactive | > 52 µM | inactive | > 54 µM | inactive
3 | CCCOc1ccc2c(C)cc(=O)oc2c1CN1CCN(c2ccc(C(C)=O)cc2)CC1 | 25 µM | 8 µM | inactive | inactive | inactive | > 100 µM | inactive | > 100 µM | inactive
4 | CC(=O)Oc1ccc2ccc(=O)oc2c1Cc1c(N2CCCCC2)oc2ccc3ccccc3c2c1=O | > 100 µM | 59 µM | inactive | inactive | inactive | 77 µM | inactive | 40 µM | inactive
5 | O=C(Oc1ccc2ccc(=O)oc2c1CN1CCN(Cc2ccc3c(c2)OCO3)CC1)c1ccccc1 | 74 µM | 77 µM | inactive | inactive | inactive | > 100 µM | inactive | 85 µM | inactive
6 | COc1ccc2c(=O)c(Cc3c(OC(C)=O)ccc4ccc(=O)oc34)c(N(C)C)oc2c1 | 26 µM | > 51 µM | inactive | inactive | inactive | > 100 µM | inactive | > 25 µM | inactive
7 | CC(=O)Oc1ccc2ccc(=O)oc2c1Cc1c(C)[nH]c2ccccc12 | 62 µM | > 86 µM | inactive | inactive | inactive | > 73 µM | inactive | > 100 µM | inactive
8 | C[C@@]1(O)[C@H](O)[C@@H](CO)O[C@H]1n1cnc2c(=O)[nH]c(N)nc21 [2'-B-METHYL-GUANOSINE] | > 100 µM | 4 µM | inactive | inactive | inactive | 1 µM | inactive | > 100 µM | inactive
9 | Cc1cc(=O)oc2c(CN3CCN(C)CC3)c(O)ccc12 | > 100 µM | > 100 µM | inactive | inactive | inactive | > 100 µM | inactive | > 100 µM | inactive
10 | O=c1ccc2ccc(O)c(CN3CCN(C/C=C/c4ccccc4)CC3)c2o1 | 5 µM | > 24 µM | inactive | inactive | inactive | > 59 µM | inactive | > 100 µM | inactive
11 | Cc1cc(=O)oc2c(CN3CCOCC3)c(O)ccc12 | > 100 µM | > 100 µM | inactive | inactive | inactive | > 100 µM | inactive | > 100 µM | inactive
12 | O=c1ccc2ccc(O)c(CN3CCN(Cc4ccc5c(c4)OCO5)CC3)c2o1 | 13 µM | > 100 µM | inactive | inactive | inactive | > 100 µM | inactive | > 100 µM | inactive
13 | CCCOc1ccc2ccc(=O)oc2c1CN1CCc2ccccc2C1 | 11 µM | – | inactive | inactive | inactive | > 19 µM | inactive | > 25 µM | inactive
14 | CCC(=O)Oc1[nH]c2ccccc2c1Cc1c(OC(C)=O)ccc2ccc(=O)oc12 | 67 µM | > 64 µM | inactive | inactive | inactive | > 72 µM | inactive | 60 µM | inactive
15 | CCN(CC)c1oc2cc(OC)ccc2c(=O)c1Cc1c(OC(C)=O)ccc2ccc(=O)oc12 | 83 µM | > 100 µM | inactive | inactive | inactive | > 100 µM | inactive | 20 µM | inactive
16 | CCCOc1ccc2c(C)cc(=O)oc2c1CN1CCN(C/C=C/c2ccccc2)CC1 | > 100 µM | 27 µM | inactive | inactive | inactive | > 53 µM | inactive | > 100 µM | inactive
17 | CC(=O)Oc1ccc2c(C)cc(=O)oc2c1Cc1c(C)n(C)c2ccccc12 | 24 µM | > 40 µM | inactive | inactive | inactive | > 58 µM | inactive | 26 µM | inactive
18 | CC(=O)Oc1ccc2ccc(=O)oc2c1Cc1c(-c2ccccc2)[nH]c2ccccc12 | > 100 µM | > 57 µM | inactive | inactive | inactive | > 100 µM | inactive | > 100 µM | inactive
19 | Cc1[nH]c2ccccc2c1Cc1c(OC(=O)CCCC(=O)O)ccc2c(C)cc(=O)oc12 | 29 µM | > 69 µM | inactive | inactive | inactive | > 64 µM | inactive | > 100 µM | inactive
20 | CCC(=O)Oc1ccc2ccc(=O)oc2c1Cc1c(-c2ccccc2)[nH]c2ccccc12 | > 100 µM | > 100 µM | inactive | inactive | inactive | > 82 µM | inactive | > 100 µM | inactive
21 | CCCOc1ccc2c(C)cc(=O)oc2c1CN1CCOCC1 | > 100 µM | > 100 µM | inactive | inactive | inactive | > 100 µM | inactive | > 100 µM | inactive
22 | CC(=O)Oc1ccc2c(C)cc(=O)oc2c1Cc1c(C)[nH]c2ccccc12 | 41 µM | > 100 µM | inactive | inactive | inactive | > 100 µM | inactive | 25 µM | inactive
23 | CCCOc1ccc2c(C)cc(=O)oc2c1CN1CCc2ccccc2C1 | > 100 µM | 20 µM | inactive | inactive | inactive | > 100 µM | inactive | > 93 µM | inactive
24 | CN(CC(=O)O)Cc1c(O)ccc2ccc(=O)oc12 | > 100 µM | > 100 µM | inactive | inactive | inactive | > 100 µM | inactive | > 100 µM | inactive
25 | O=C(Oc1ccc2ccc(=O)oc2c1CN1CCc2ccccc2C1)c1ccccc1 | > 100 µM | > 100 µM | inactive | inactive | inactive | > 100 µM | inactive | 1 µM | inactive
26 | O=c1ccc2ccc(O)c(CN3CCc4ccccc4C3)c2o1 | > 100 µM | > 100 µM | inactive | inactive | inactive | > 100 µM | inactive | > 100 µM | inactive
27 | COCCN(CCOC)c1oc2ccc3ccccc3c2c(=O)c1Cc1c(OC(C)=O)ccc2c(C)cc(=O)oc12 | > 100 µM | > 100 µM | inactive | inactive | inactive | > 100 µM | inactive | ≥ 100 µM | inactive
28 | Cc1cc(=O)oc2c(CN3CCN(C)CC3)c(OC(=O)c3ccccc3)ccc12 | > 100 µM | > 100 µM | inactive | inactive | inactive | > 100 µM | inactive | > 100 µM | inactive
29 | COCCN(CCOC)c1oc2ccc3ccccc3c2c(=O)c1Cc1c(OC(C)=O)ccc2ccc(=O)oc12 | > 100 µM | 78 µM | inactive | inactive | inactive | 100 µM | inactive | 5 µM | inactive
